The text below walks through data of article PMC5392131 (Current topics in behavioral neurosciences, 2017).

As usually defined, the Cmax is the peak of the concentration-time curve. By Tmax is commonly meant the time from dosing to the highest level. A word on the IC50: it is the concentration that gives 50% inhibition.

Where two headings read alike, the source gives them in different places.

Data set [1] deals with extracellular dopamine in nucleus accumbens. Description: In vivo microdialysis in nucleus accumbens, dialysate dopamine. The note with it: rat nucleus accumbens; i.v. 3 mg/kg (after 1.0 mg/kg at time zero).
Data set [2] concerns male Sprague–Dawley rats. Briefly: Locomotor activity. Format: in vivo, rat. Particulars: rats undergoing microdialysis; i.v. 3 mg/kg (after 1.0 mg/kg at time zero).
Data set [3] is described as follows: Plasma pharmacokinetics of MDPV and metabolites after i.p. MDPV administration. Particulars: rat plasma.
The subject of data set [4] is DAT. Description: DAT uptake inhibition in rat brain synaptosomes. Format: biochemical. The note with it: for DAT/SERT ratio: (DAT IC50)^−1/(SERT IC50)^−1, higher values indicate greater DAT selectivity.
The subject of a further data set is NET. Description: NET uptake inhibition in rat brain synaptosomes. Format: biochemical. The note with it: relative to cocaine.
The next data set deals with SERT. Briefly: SERT uptake inhibition in rat brain synaptosomes. Particulars: relative to cocaine. Format: biochemical.
The conditions of data set [5]: cited from earlier work.
Another data set has as its system CYP 2D6. The note with it: read-out: CYP 2D6 inhibition IC50; in vitro; cited from earlier work.
The subject of data set [6] is extracellular dopamine in nucleus accumbens. Particulars: rats, cited from earlier work; for Elevation in extracellular dopamine: i.v. 0.3 mg/kg MDPV, 3.0 mg/kg methylone.
Data set [7] deals with male Sprague–Dawley rats. Particulars: cited from earlier work.
Data set [8] has as its system extracellular 5-HT in nucleus accumbens. The note with it: rats; i.v. 3.0 mg/kg methylone; cited from earlier work.
The test system of data set [9] is DAT. The note with it: S-MDPV versus R-MDPV; cited from earlier work.
The mark [10] stands for this setting: i.p. MDPV 0.5 mg/kg, mean±SEM, N=6.
Where [11] appears, read: i.p. MDPV 1.0 mg/kg, mean±SEM, N=6.
Where [12] appears, read: i.p. MDPV 2.0 mg/kg, mean±SEM, N=6.
Setting [13] is: i.p. MDPV 2.0 mg/kg, mean±SEM, N=6, listed as MPDV.

With `CCCC(C(=O)c1ccc(O)c(O)c1)N1CCCC1` (centres unmarked) [3,4-Catechol-PV, 3,4-dihydroxypyrovalerone], the “Effect on extracellular dopamine” value in data set [1] was “small, albeit significant, elevations”. For the same compound, the Effect on ambulation entry in the data set with male Sprague–Dawley rats [2] is on record as “no change in ambulation”. In addition, in data set [3] (setting [10]), the AUC is 2,822±415 min μg/L, the Cmax stood at 14 ± 2 ng/mL and the Tmax worked out at 2.67 ± 0.417 h. In data set [3] (setting [11]), the AUC is given as 8,317±589 min μg/L, the Cmax was determined as 36 ± 4 ng/mL and the Tmax was determined as 3.15 ± 0.983 h. Besides, in data set [3] (setting [12]), the AUC is recorded as 12,762±1,625 min μg/L, the Cmax was 46 ± 9 ng/mL and the Tmax came to 3.43 ± 0.417 h.
With `CCCC(C(=O)c1ccc(O)c(OC)c1)N1CCCC1` (centres unmarked) [4-OH-3-MeO-PV, 4-hydroxy-3-methoxypyrovalerone], the DAT/SERT ratio in the data set with DAT [4] is listed as above 12. In addition, the AUC was 14,657±2,577 min μg/L in data set [3] (setting [10]), 28,168±3,373 min μg/L in [3] (setting [11]) and 51,925±7,946 min μg/L in data set [3] (setting [12]). Moreover, the results for the Cmax in [3] (setting [10]), in [3] (setting [11]) and in [3] (setting [12]) were 57 ± 7 ng/mL, 135 ± 23 ng/mL and 198 ± 31 ng/mL, respectively. The figures for the Tmax in data set [3] (setting [10]), in data set [3] (setting [11]) and in [3] (setting [12]) were 2.8 ± 0.45 h, 4.33 ± 0.4 h and 4 ± 0.9 h, respectively.
With `CC(N)Cc1ccccc1` (centres unmarked) [Amphetamine, reference compound], in the data set on DAT [4], the DAT/SERT ratio was determined as 36.75.
On to `COC(=O)[C@H]1[C@@H](OC(=O)c2ccccc2)C[C@@H]2CC[C@H]1N2C` [Cocaine, reference compound], for which the DAT/SERT ratio in the data set with DAT [4] is given as 1.48.
With `CCCC(C(=O)c1ccc2c(c1)OCO2)N1CCCC1` (centres unmarked) [MDPV, 3,4-methylenedioxypyrovalerone], the DAT/SERT ratio in the data set on DAT [4] came to 816.82. In addition, the “Potency as inhibitor at DAT compared to cocaine” value in the data set with DAT [4] (rat brain synaptosomes, relative to cocaine) is 50 fold. Further, the “Potency as inhibitor at NET compared to cocaine” value in the data set on NET is “tenfold more potent”. The “Potency as inhibitor at SERT compared to cocaine” value in the data set with SERT is listed as “tenfold less potent”. The “Half-life (t1/2)” value in [5] (rat plasma, 2 mg/kg s.c. MDPV) was “about 80 min”. Besides, in [5] (rat, 2 mg/kg s.c. MDPV), the “Plasma Cmax” value was 271 ng/mL. In addition, the “Time of maximal plasma concentration (Cmax) after injection” value in data set [5] (rat, s.c. MDPV (0.5, 1, 2 mg/kg)) is 15 to 20 min. The highest concentration (Cmax) in data set [5] (read-out: Plasma Cmax (molar), rat, 2 mg/kg s.c. MDPV) was around 1000 nM; in [3] (setting [10]) it was 20 ± 5 ng/mL; in data set [3] (setting [11]), 54 ± 18 ng/mL; in [3] (setting [12]), 135 ± 29 ng/mL; in data set [3] (read-out: Cmax (molar), i.p. MDPV 2 mg/kg) it was around 500 nM. Also, in the data set on CYP 2D6, the IC50 was 1.3 µM. Moreover, the “Elevation in extracellular dopamine” value in data set [6] is “threefold”. The “Potency to increase dialysate dopamine compared to cocaine” value in [6] (i.v. administration) was “tenfold more potent”. Moreover, the “Potency as locomotor stimulant compared to cocaine” value in the data set on male Sprague–Dawley rats [7] is reported as “about tenfold more potent”. Further, the AUC is 1,114 min μg/L in data set [3] (setting [10]); 1,114±330 min μg/L in data set [3] (i.p. MDPV 0.5 mg/kg, mean±SEM, N=6, listed as MPDV); 2,858±859 min μg/L in [3] (setting [11]); 8,726 min μg/L in [3] (setting [12]); 8,726±1,877 min μg/L in [3] (setting [13]). Moreover, the Tmax in [3] (setting [10]), in data set [3] (setting [11]) and in data set [3] (setting [12]) was 0.167 ± 0 h throughout. The figures for the t1/2 in data set [3] (setting [10]), in [3] (setting [11]) and in data set [3] (setting [13]) were 1.53 ± 0.12 h, 1.32 ± 0.217 h and 1.65 ± 0.233 h, respectively. Also, the “Time at which Cmax is achieved” value in [3] (i.p. MDPV (0.5, 1, 2 mg/kg)) is at most 10 min.
`CNC(C)C(=O)c1ccc(C)cc1` (centres unmarked) [Mephedrone, 4-methyl-N-methylcathinone, reference compound]: the DAT/SERT ratio in the data set with DAT [4] was found to be 0.55.
As for `CNC(C)C(=O)c1ccc2c(c1)OCO2` (centres unmarked) [Methylone, 3,4-methylenedioxy-N-methylcathinone, reference compound], the DAT/SERT ratio in the data set on DAT [4] is recorded as 0.77. Also, in data set [6], the “Elevation in extracellular dopamine” value was “threefold”. In addition, the “Elevation in extracellular 5-HT” value in data set [8] is “tenfold”.
Regarding `CCC[C@@H](C(=O)c1ccc2c(c1)OCO2)N1CCCC1` [S-MDPV], the “Potency at inhibiting DAT compared to R-MDPV” value with DAT [9] is reported as 100 times.
Regarding `CCC(C(=O)c1ccccc1)N1CCCC1` (stereo not drawn) [α-PBP, α-pyrrolidinobutiophenone], the DAT/SERT ratio with DAT [4] was above 159.
`CC(C(=O)c1ccccc1)N1CCCC1` (stereo not drawn) [α-PPP, α-pyrrolidinopropiophenone]: the DAT/SERT ratio in the data set with DAT [4] is given as above 50.
Still for that read-out and setting: under `CCCC(C(=O)c1ccccc1)N1CCCC1` (stereo not drawn) [α-PVP, α-pyrrolidinovalerophenone] stands above 833.
